Reference: patent US9226500B2, “Pesticidal compositions and processes related thereto” (Dow AgroSciences LLC, priority 2012, dated 2016)

Legend:
Assay type in all cases: in vivo
[1] = test system: Cabbage Looper (Trichoplusia ni); assay: Bioassay on Cabbage Looper (CL), 128-well diet tray assay; settings: 168 h, percent mortality of second instar larvae, 50 μg/cm^2 on artificial diet, five to seven days, 25° C., read-out: CL Rating
Protocol: Certain molecules disclosed in this document were tested against BAW, CEW and CL using procedures described in the following examples. In the reporting of the results, the “BAW & CEW & CL Rating Table” was used (See Table Section).
Bioassays on CL (Trichoplusia ni)
Bioassays on CL were conducted using a 128-well diet tray assay. One to five second instar CL larvae were placed in each well (3 mL) of the diet tray that had been previously filled with 1 mL of artificial diet to which 50 μg/cm^2 of the test compound (dissolved in 50 μL of 90:10 acetone-water mixture) had been applied (to each of eight wells) and then allowed to dry. Trays were covered with a clear self-adhesive cover, and held at 25° C., 14:10 light-dark for five to seven days. Percent mortality was recorded for the larvae in each well; activity in the eight wells was then averaged.
“Table 4: Assay Results Part 2” (See Table Section).

[2] = test system: Beet Armyworm (Spodoptera exigua); assay: Bioassay on Beet Armyworm (BAW), 128-well diet tray assay; settings: Spodoptera exigua, 168 h; percent mortality of second instar larvae, 50 μg/cm^2 on artificial diet, five to seven days, 25° C.; read-out: BAW Rating
[3] = test system: Green Peach Aphid (Myzus persicae); assay: Bioassay on Green Peach Aphid (GPA), foliar spray on cabbage seedlings; settings: Myzus persicae, foliar, 72 h; Table 5, Prophetic Compounds Subsequently Exemplified; read-out: GPA Rating
Protocol: Certain molecules disclosed in this document were tested against GPA using procedures described in the following example. In the reporting of the results, the “GPA Rating Table” was used (See Table Section). Cabbage seedlings grown in 3-inch pots, with 2-3 small (3-5 cm) true leaves, were used as test substrate. The seedlings were infested with 20-50 GPA (wingless adult and nymph stages) one day prior to chemical application. Four pots with individual seedlings were used for each treatment. Test compounds (2 mg) were dissolved in 2 mL of acetone/MeOH (1:1) solvent, forming stock solutions of 1000 ppm test compound. The stock solutions were diluted 5× with 0.025% Tween 20 in water to obtain the solution at 200 ppm test compound. A hand-held aspirator-type sprayer was used for spraying a solution to both sides of […] leaves until runoff. Reference plants (solvent check) were sprayed with the diluent only containing 20% by volume of acetone/MeOH (1:1) solvent. Treated plants were held in a holding room for three days at approximately 25° C. and ambient relative humidity (RH) prior to grading. Evaluation was conducted by counting the number of live aphids per plant under a microscope. Percent Control was measured by using Abbott's correction formula (W. S. Abbott, “A Method of Computing the Effectiveness of an Insecticide” J. Econ. Entomol. 18 (1925), pp. 265-267) as follows. Corrected % Control=100*(X−Y)/X • where • X=No. of live aphids on solvent check plants and • Y=No. of live aphids on treated plants The results are indicated in the tables entitled “Table 3: Assay Results Part 1” and “Table 4: Assay Results Part 2” (See Table Section).

SMILES | pest or weed control at 50 µg/cm2, 50 µg/cm2 [1] [%] | pest or weed control at 50 µg/cm2, 50 µg/cm2 [2] [%] | pest or weed control at 200 µg/mL [3] [%]
C[C@@H](NC(=O)c1ccc(/C=C/C(c2cc(Cl)c(Cl)c(Cl)c2)C(F)(F)F)cc1C(F)(F)F)C(=S)NCC(F)(F)F (stereo partly shown) [Compound F28] | 50 to 100 | 50 to 100 | –
C[C@@H](NC(=O)c1ccc(/C=C/C(c2cc(Cl)c(Cl)c(Cl)c2)C(F)(F)F)cc1C(F)(F)F)C(=O)NCC(F)(F)F (mixture of isomers) [Compound F20] | 50 to 100 | 50 to 100 | –
C[C@@H](NC(=O)c1ccc(/C=C/C(c2cc(Cl)c(Cl)c(Cl)c2)C(F)(F)F)cc1Br)C(=O)NCC(F)(F)F (stereo partly shown) [Compound F6] | 50 to 100 | 50 to 100 | –
CC[C@H](NC(=O)c1ccc(/C=C/C(c2cc(Cl)c(Cl)c(Cl)c2)C(F)(F)F)cc1Cl)C(=O)NCC(F)(F)F (stereo partly shown) [Compound F23] | 50 to 100 | – | –
CC(C)(NC(=O)c1ccc(/C=C/C(c2cc(Cl)c(Cl)c(Cl)c2)C(F)(F)F)cc1Cl)C(=O)NCC(F)(F)F (stereo not shown) [Compound F2] | 50 to 100 | 50 to 100 | –
Cc1cc(/C=C/C(c2cc(Cl)c(Cl)c(Cl)c2)C(F)(F)F)ccc1C(=O)N[C@H](C)C(=S)NCC(F)(F)F (stereo partly shown) [Compound F26] | 50 to 100 | 50 to 100 | –
O=C(CNC(=O)c1ccc(/C=C/C(c2cc(Cl)c(Cl)c(Cl)c2)C(F)(F)F)cc1C(F)(F)F)NCC(F)F (stereo not shown) [Compound P1566] | – | – | 80 to 100
C[C@@H](NC(=O)c1ccc(/C=C/C(c2cc(F)cc(Br)c2)C(F)(F)F)cc1Br)C(=O)NCC(F)(F)F (stereo partly shown) [Compound P298] | – | – | 0 to 80
CCC(NC(=O)c1ccc(/C=C/C(c2cc(Cl)c(Cl)c(Cl)c2)C(F)(F)F)cc1C)C(=O)NCC(F)(F)F (stereo not shown) [Compound F15A] | 50 to 100 | 50 to 100 | –
C[C@@H](NC(=O)c1ccc(/C=C/C(c2cc(Br)cc(Br)c2)C(F)(F)F)cc1C(F)(F)F)C(=O)NCC(F)(F)F (stereo partly shown) [Compound F21] | 50 to 100 | 50 to 100 | –
C[C@@H](NC(=O)c1ccc(/C=C\C(c2cc(Cl)c(Cl)c(Cl)c2)C(F)(F)F)cc1C(F)(F)F)C(=O)NCC(F)(F)F (stereo partly shown) [Compound F20C] | 50 to 100 | 50 to 100 | –
CCNC(=O)[C@@H](C)NC(=O)c1ccc(/C=C/C(c2cc(Cl)c(Cl)c(Cl)c2)C(F)(F)F)cc1C (stereo partly shown) [Compound P1624] | – | – | 80 to 100
CC[C@H](NC(=O)c1ccc(/C=C/C(c2cc(Cl)c(Cl)c(Cl)c2)C(F)(F)F)cc1Br)C(=O)NCC(F)(F)F (stereo partly shown) [Compound F8] | 50 to 100 | 50 to 100 | –
C[C@@H](NC(=O)c1ccc(/C=C/C(c2cc(Br)cc(Br)c2)C(F)(F)F)cc1Br)C(=O)NCC(F)(F)F (stereo partly shown) [Compound F19] | 50 to 100 | 50 to 100 | –
C[C@@H](NC(=O)c1ccc(/C=C/C(c2cc(Cl)c(Cl)c(Cl)c2)C(F)(F)F)cc1Br)C(=S)NCC(F)(F)F (stereo partly shown) [Compound F27] | 50 to 100 | 50 to 100 | –
CCC(NC(=O)c1ccc(/C=C/C(c2cc(Cl)c(Cl)c(Cl)c2)C(F)(F)F)cc1Br)C(=O)NCC(F)(F)F (stereo not shown) [Compound F8A] | 50 to 100 | 50 to 100 | –
CCC(NC(=O)c1ccc(/C=C/C(c2cc(Cl)c(Cl)c(Cl)c2)C(F)(F)F)cc1C(F)(F)F)C(=O)NCC(F)(F)F (stereo not shown) [Compound F16A] | 50 to 100 | 50 to 100 | –
CC(NC(=O)c1ccc(/C=C/C(c2cc(Cl)c(Cl)c(Cl)c2)C(F)(F)F)cc1Br)C(=O)NCCC(F)(F)F (stereo not shown) [Compound P1631A] | – | – | 0 to 80

SMILES | pest or weed control at 50 µg/cm2, 50 µg/cm2 [1] [%] | pest or weed control at 50 µg/cm2, 50 µg/cm2 [2] [%] | pest or weed control at 200 µg/mL [3] [%]
CC(C)(NC(=O)c1ccc(/C=C/C(c2cc(Cl)c(Cl)c(Cl)c2)C(F)(F)F)cc1C(F)(F)F)C(=O)NCC(F)(F)F (stereo not shown) [Compound F4] | 50 to 100 | 50 to 100 | –
CCC(NC(=O)c1ccc(/C=C/C(c2cc(Cl)c(Cl)c(Cl)c2)C(F)(F)F)cc1Cl)C(=O)NCC(F)(F)F (stereo not shown) [Compound F23A] | 50 to 100 | 50 to 100 | –
CC[C@H](NC(=O)c1ccc(/C=C/C(c2cc(Cl)c(Cl)c(Cl)c2)C(F)(F)F)cc1C(F)(F)F)C(=O)NCC(F)(F)F (stereo partly shown) [Compound F16] | 50 to 100 | 50 to 100 | –
CC[C@H](NC(=O)c1ccc(/C=C/C(c2cc(Cl)c(Cl)c(Cl)c2)C(F)(F)F)cc1C)C(=O)NCC(F)(F)F (stereo partly shown) [Compound F15] | 50 to 100 | 50 to 100 | –
Cc1cc(/C=C/C(c2cc(Cl)c(Cl)c(Cl)c2)C(F)(F)F)ccc1C(=O)NC(C)(C)C(=S)NCC(F)(F)F (stereo not shown) [Compound F29] | 50 to 100 | 50 to 100 | –
Cc1cc(/C=C/C(c2cc(Br)cc(Br)c2)C(F)(F)F)ccc1C(=O)N[C@H](C)C(=O)NCC(F)(F)F (stereo partly shown) [Compound F17] | 50 to 100 | 50 to 100 | –
Cc1cc(/C=C/C(c2cc(Cl)c(Cl)c(Cl)c2)C(F)(F)F)ccc1C(=O)N[C@H](C)C(=O)NCC(F)(F)F (stereo partly shown) [Compound F7] | 50 to 100 | 50 to 100 | –
C[C@@H](NC(=O)c1ccc(/C=C/C(c2cc(F)cc(C(F)(F)F)c2)C(F)(F)F)cc1Br)C(=O)NCC(F)(F)F (stereo partly shown) [Compound F24] | 50 to 100 | 50 to 100 | –
Cc1cc(/C=C/C(c2cc(Cl)c(Cl)c(Cl)c2)C(F)(F)F)ccc1C(=O)NC(C)(C)C(=O)NCC(F)(F)F (stereo not shown) [Compound F3] | 50 to 100 | 50 to 100 | –
C[C@H](NC(=O)c1ccc(/C=C/C(c2cc(Cl)c(Cl)c(Cl)c2)C(F)(F)F)cc1Br)C(=O)NCC(F)(F)F (stereo partly shown) [Compound F5] | 50 to 100 | 50 to 100 | –
Cc1cc(/C=C/C(c2cc(Cl)c(Cl)c(Cl)c2)C(F)(F)F)ccc1C(=S)NC(C)(C)C(=S)NCC(F)(F)F (stereo not shown) [Compound F31, (E)-2-Methyl-N-(2-methyl-1-thioxo-1-(2,2,2-trifluoroethylamino)propan-2-yl)-4-(4,4,4-trifluoro-3-(3,4,5-trichlorophenyl)but-1-enyl)benzothioamide] | 50 to 100 | 50 to 100 | –
C[C@H](NC(=O)c1ccc(/C=C/C(c2cc(Cl)c(Cl)c(Cl)c2)C(F)(F)F)cc1C(F)(F)F)C(=O)NCC(F)(F)F (stereo partly shown) [Compound F18] | 50 to 100 | 50 to 100 | –
C[C@@H](NC(=O)c1ccc(/C=C/C(c2cc(Cl)c(Cl)c(Cl)c2)C(F)(F)F)cc1Cl)C(=O)NCC(F)(F)F (stereo partly shown) [Compound F25] | 50 to 100 | 50 to 100 | –
C[C@@H](NC(=O)c1ccc(/C=C/C(c2cc(Cl)c(Cl)c(Cl)c2)C(F)(F)F)cc1Cl)C(=S)NCC(F)(F)F (stereo partly shown) [Compound F30] | 50 to 100 | 50 to 100 | –
C[C@@H](NC(=O)c1ccc(/C=C/C(c2cc(C(F)(F)F)cc(C(F)(F)F)c2)C(F)(F)F)cc1Br)C(=O)NCC(F)(F)F (stereo partly shown) [Compound F14] | 50 to 100 | 50 to 100 | –
Cc1cc(/C=C/C(c2cc(Cl)c(Cl)c(Cl)c2)C(F)(F)F)ccc1C(=O)N[C@@H](C)C(=O)NCC(F)(F)F (stereo partly shown) [Compound F9] | 50 to 100 | 50 to 100 | –
C[C@@H](NC(=O)c1ccc(/C=C/[C@@H](c2cc(Cl)c(Cl)c(Cl)c2)C(F)(F)F)cc1C(F)(F)F)C(=O)NCC(F)(F)F [Compound F20B, N—((R)-1-Oxo-1-((2,2,2-trifluoroethyl)amino)propan-2-yl)-4-((E)-4,4,4-trifluoro-3-(3,4,5-trichlorophenyl)but-1-en-1-yl)-2-(trifluoromethyl)benzamide] | 50 to 100 | 50 to 100 | –
C[C@@H](NC(=O)c1ccc(/C=C/C(c2cccc(C(F)(F)F)c2)C(F)(F)F)cc1Br)C(=O)NCC(F)(F)F (stereo partly shown) [Compound F22] | 50 to 100 | 50 to 100 | –
